Assay results from US11279687B2, “Compounds and compositions for the inhibition of NAMPT” (Valo Health, Inc., priority 2010, dated 2022).
Entries after “also recorded” stand apart in the source; their conditions may differ.

Columns and labels:
NAMPT = NAMPT (Homo sapiens (Human), UniProt P43490); experiment: NAMPT biochemical inhibition assay (NMN quantified by mass spectrometry); details: NAMPT biochemical inhibition; read-out: Biochem IC50
A2780 cells [1] = experiment: In-vitro cell proliferation assay (SRB), A2780 cells; assay type: cell-based; details: Homo sapiens, A2780, 72 h, A2780 cells, 72 hours, SRB; read-out: A2780 IC50;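 further: viable cell number read as SRB absorbance, background from media-only wells subtracted, IC50 interpolated from percent inhibition at two bracketing compound concentrations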
A2780 cells [2] = experiment: A2780 xenograft study in mice; assay type: in vivo, C.B-17-Igh-1b-Prkdc^scid mice; details: female SCID mice, s.c. A2780 tumors, p.o. BID for 5 or 10 days, dose selected from MTD study
Description: C.B-17-Igh-1b-Prkdc^scid mice (female) were injected s.c. with 5×10^6 A2780 cells (NCI) in the left flank. 10-12 days later when tumors reached 100-200 mm3 in size, mice were randomized into treatment groups of 8 mice per group including vehicle control and reference standard groups. The compounds were formulated in 60:30:10 PEG-400:D5W: Ethanol and administered p.o., at the dose volume of 10 ml/kg BID for a duration of 5 or 10 days. The dose used for efficacy was selected from the MTD (Maximum Tolerated Dose) study. Mice were weighed and tumors measured using vernier calipers every alternate day. Tumor volume was calculated according to the formula (length×width^2)/2. All animal work was approved by the Institutional Animal Care and Use Committee of Biological Resource Centre, Singapore.

Sequence of NAMPT (P43490 whole entry): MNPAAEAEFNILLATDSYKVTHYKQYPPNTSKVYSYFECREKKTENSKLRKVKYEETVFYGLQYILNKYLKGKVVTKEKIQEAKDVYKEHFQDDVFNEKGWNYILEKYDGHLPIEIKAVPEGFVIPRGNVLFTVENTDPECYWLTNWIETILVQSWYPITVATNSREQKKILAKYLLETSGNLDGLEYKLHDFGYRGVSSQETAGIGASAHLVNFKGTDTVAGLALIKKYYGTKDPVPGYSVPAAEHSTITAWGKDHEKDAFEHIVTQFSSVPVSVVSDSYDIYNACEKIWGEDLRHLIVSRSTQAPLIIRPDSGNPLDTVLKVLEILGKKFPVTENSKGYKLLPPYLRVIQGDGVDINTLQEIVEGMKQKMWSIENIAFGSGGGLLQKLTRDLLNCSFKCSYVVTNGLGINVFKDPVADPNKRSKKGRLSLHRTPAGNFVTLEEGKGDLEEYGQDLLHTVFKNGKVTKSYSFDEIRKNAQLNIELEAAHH

Row | Compound | IC50 (NAMPT) | IC50 (A2780 cells [1]) | effect on tumor growth in A2780 xenograft (A2780 cells [2])
1 | O=C(NCc1cccnc1)Nc1ccc(S(=O)(=O)N[C@H]2C[C@@H]3CC[C@H]2C3)cc1 [1-(4-{[(1S,2S,4R)-bicyclo[2.2.1]heptan-2-yl]sulfamoyl}phenyl)-3-(pyridin-3-ylmethyl)urea] | 7 nM | 46 nM | delayed tumor growth
2 | O=C(NCc1cccnc1)Nc1ccc(S(=O)(=O)c2ccccc2OC(F)(F)F)cc1 [1-(pyridin-3-ylmethyl)-3-(4-{[2-(trifluoromethoxy)benzene]sulfonyl}phenyl)urea] | 1 nM | 3 nM | tumor regression
3 | O=C(NCc1cccnc1)Nc1ccc(S(=O)(=O)N2CCC(N3CCOCC3)CC2)cc1 [1-{4-[4-(morpholin-4-yl)piperidine-1-sulfonyl]phenyl}-3-(pyridin-3-ylmethyl)urea] | 9 nM | 13 nM | delayed tumor growth
4 | C[C@@H]1CN(S(=O)(=O)c2ccc(NC(=O)NCc3ccc4nccn4c3)cc2)C[C@H](C)O1 [1-{4-[(2R,6S)-2,6-dimethylmorpholine-4-sulfonyl]phenyl}-3-{imidazo[1,2-a]pyridin-6-ylmethyl}urea] | 8 nM | 25 nM | delayed tumor growth
5 | O=C(NCc1ccc2nccn2c1)Nc1ccc(S(=O)(=O)c2ccc(F)cc2)cc1 [1-{4-[(4-fluorobenzene)sulfonyl]phenyl}-3-{imidazo[1,2-a]pyridin-6-ylmethyl}urea] | 3 nM | 29 nM | tumor stasis; also recorded: delayed tumor growth
6 | O=C(NCc1cccnc1)Nc1ccc(S(=O)(=O)Nc2cccc3ccccc23)cc1 [1-{4-[(naphthalen-1-yl)sulfamoyl]phenyl}-3-(pyridin-3-ylmethyl)urea] | 1 nM | 19 nM | delayed tumor growth
7 | COc1ccc(C(F)(F)F)cc1NS(=O)(=O)c1ccc(NC(=O)NCc2cccnc2)cc1 [3-(4-{[2-methoxy-5-(trifluoromethyl)phenyl]sulfamoyl}phenyl)-1-(pyridin-3-ylmethyl)urea] | 0.1 nM | 2 nM | delayed tumor growth
8 | Cc1ccc(Cl)c(NS(=O)(=O)c2ccc(NC(=O)NCc3cccnc3)cc2)c1 [3-{4-[(2-chloro-5-methylphenyl)sulfamoyl]phenyl}-1-(pyridin-3-ylmethyl)urea] | 0.3 nM | 9 nM | delayed tumor growth
9 | COc1cccc(NS(=O)(=O)c2ccc(NC(=O)NCc3cccnc3)cc2)c1C [3-{4-[(3-methoxy-2-methylphenyl)sulfamoyl]phenyl}-1-(pyridin-3-ylmethyl)urea] | 2 nM | 57 nM | delayed tumor growth
10 | COc1cc(Cl)c(C)cc1NS(=O)(=O)c1ccc(NC(=O)NCc2cccnc2)cc1 [3-{4-[(4-chloro-2-methoxy-5-methylphenyl)sulfamoyl]phenyl}-1-(pyridin-3-ylmethyl)urea] | 1 nM | 6 nM | tumor stasis
11 | O=C(NCc1cccnc1)Nc1ccc(S(=O)(=O)c2ccc(F)cc2)cc1 [3-{4-[(4-fluorobenzene)sulfonyl]phenyl}-1-(pyridin-3-ylmethyl)urea] | 4 nM | 171 nM | delayed tumor growth
12 | COc1ccc(Cl)cc1NS(=O)(=O)c1ccc(NC(=O)NCc2cccnc2)cc1 [3-{4-[(5-chloro-2-methoxyphenyl)sulfamoyl]phenyl}-1-(pyridin-3-ylmethyl)urea] | 0.9 nM | 3 nM | delayed tumor growth
13 | O=C(NCc1ccc2nccn2c1)Nc1ccc(S(=O)(=O)N2CCC(N3CCOCC3)CC2)cc1 [3-{imidazo[1,2-a]pyridin-6-ylmethyl}-1-{4-[4-(morpholin-4-yl)piperidine-1-sulfonyl]phenyl}urea] | 4 nM | 5 nM | delayed tumor growth
